Measured values from US20110112195A1 (priority 2004, published 2011).
In brackets after ≈: the same amount, converted by molar mass. Where two headings read alike, the source gives them in different places.

Assays:
Ebola = format: cell-based
vaccinia virus (WR) [1] = format: cell-based
West Nile Virus = format: cell-based
Adenovirus = format: cell-based
SARS-CoV [2] = test: microbe, parasite or virus in culture; format: cell-based
[3] = test system: adenovirus type 5 expressing EGFP; format: cell-based
vaccinia virus (WR) [4] = format: cell-based; remark: listed apart in the source
[5] = biological target: H1L phosphatase (GST-H1L fusion protein) (Vaccinia virus, UniProt P07239); test: biochemical
SARS-CoV [6] = format: cell-based
in vitro = conditions: African green monkey
SARS-CoV [7] = conditions: cited from earlier work

## O=C(O)C1=CC(=C(c2ccc(O)c(C(=O)O)c2)c2ccc(O)c(C(=O)O)c2)C=CC1=O [ATA, aurintricarboxylic acid]
Ebola
  effect on Ebola: no effect
Vaccinia virus (WR) [1]
  plaque count (peak viral load): 616 pfu/mL
  viral count in treated sample as share of untreated control: 0.00026%
West Nile Virus
  inhibition of West Nile Virus: 10000 fold
Vero cells
  toxicity associated with treatment: little toxicity
Adenovirus
  effect on Adenovirus: no effect
SARS-CoV [2]
  inhibition of virus replication compared to untreated controls: ≤ 1000 fold
  viral replication level lower than control: 10 times
SARS-CoV [2]; Severe acute respiratory syndrome coronavirus, Vero
  EC50: 0.2 mg/mL (≈ 0.474 mM)
[3]
  inhibition of EGFP expression by adenovirus: No significant inhibition
Vaccinia virus (WR) [4]
  lowest drug concentration at which block in vaccinia replication was evident: 25 µg/mL
[5]
  IC50: 16 µM
SARS-CoV [6]
  inhibition of virus RNA replication: more than 1,000 fold
  potency of ATA relative to interferon α as anti-SARS-CoV agent: about 10 times
  potency of ATA relative to interferon β as anti-SARS-CoV agent: ~100 times
In vitro
  CC50: 37.5 mg/mL (≈ 88.8 mM)

## CC1(C)[C@@H](O[C@H]2O[C@H](C(=O)O)[C@@H](O)[C@H](O)[C@H]2O[C@@H]2O[C@H](C(=O)O)[C@@H](O)[C@H](O)[C@H]2O)CC[C@]2(C)[C@H]3C(=O)C=C4[C@@H]5C[C@@](C)(C(=O)O)CC[C@]5(C)CC[C@@]4(C)[C@]3(C)CC[C@@H]12 [glycyrrhizin]
SARS-CoV [7]
  inhibition effect on SARS-CoV replication (logs): two logs or less

## Cc1c(O)cccc1C(=O)N[C@@H](CSc1ccccc1)[C@H](O)CN1C[C@H]2CCCC[C@H]2C[C@H]1C(=O)NC(C)(C)C [nelfinavir]
SARS-CoV [7]
  inhibition effect on SARS-CoV replication (logs): two logs or less

## NC(=O)c1ncn([C@@H]2O[C@H](CO)[C@@H](O)[C@H]2O)n1 [ribavarin]
SARS-CoV [7]
  effect against SARS-CoV replication: little effect

## IFNα
Vero cells
  CC50: 15000 IU/ml
SARS-CoV [2]
  EC50: 500 IU/ml
SARS-CoV [6]
  inhibition effect with pre-treatment compared with samples without pre-treatment: about the same
  inhibition of virus RNA replication: 100 fold
